This note sets out measurements from patent US11241387B2, “Carrier-binding agent compositions and methods of making and using the same” (Mayo Foundation for Medical Education and Research, priority 2015, dated 2022).

Test [1] concerns Daudi human lymphoma cells. In words: Daudi xenotransplant model in athymic nude mice. The class given is in vivo. The conditions noted are these: ABX 30 mg/kg, rituximab 12 mg/kg, or AR160.
Procedure: (§1) To test tumor efficacy, 1×10^6 A375 human melanoma cells were implanted into the right flank of athymic nude mice (Harlan Sprague Dawley, Indianapolis, Ind.). […] Tumor size was monitored 3 times/week and tumor volume was calculated with the following equation: (length×width)/2. Mice were sacrificed when the tumor size equaled 10% of the mouse body weight or about 2500 mm^3. The day 7 percent change from baseline was calculated as follows: [(tumor size on treatment day-tumor size on day 7)/tumor size on treatment day]×100.
Test [2] has as its target T1, CD20 (Homo sapiens, UniProt P11836).
T1 construct: host or cells: Daudi B-cell lymphoma cells
T1 sequence (P11836 1-297): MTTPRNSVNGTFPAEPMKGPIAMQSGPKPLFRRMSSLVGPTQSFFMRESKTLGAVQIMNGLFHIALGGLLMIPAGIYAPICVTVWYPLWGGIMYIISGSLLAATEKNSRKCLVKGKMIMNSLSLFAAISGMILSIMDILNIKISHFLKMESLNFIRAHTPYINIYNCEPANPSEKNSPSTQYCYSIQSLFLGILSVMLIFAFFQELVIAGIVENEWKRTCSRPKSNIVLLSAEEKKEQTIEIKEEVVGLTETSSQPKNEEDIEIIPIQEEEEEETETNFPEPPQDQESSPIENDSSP
In words: Blocking of fluorescent anti-CD20 labeling of Daudi cells (flow cytometry). The class given is binding. The settings on record: Daudi cells pretreated prior to CD20 labeling. From the text: FIG. 12 depicts the results of an experiment in which CD20 positive Daudi lymphoma cells were labeled with fluorescent tagged anti-human CD20 or isotype matched control in panels F and A, respectively, and analyzed by flow cytometry.
CD20 positive Daudi lymphoma cells were labeled with fluorescent tagged anti-human CD20 or isotype matched control in panel F and A, respectively, and analyzed by flow cytometry.
(In general: A flow cytometer gives signals particle by particle.)

Test [3] has as its target T2, ABX (Homo sapiens, UniProt P02768).
T2 construct: purchased Celgene Corporation, Summit, N.J
In words: Bio-Layer Interferometry (BLItz) binding of antibody to ABX. The settings on record: pH 3, 5, 7, 9; BEV also RT, 37° C. and 58° C. (In general: BLI is a label-free optical method that tracks binding on a fibre tip over time.)
Procedure: The association and dissociation constants were calculated using the BLItz software.

In test [4] the test system is A375 human melanoma cells. In words: A375 human melanoma xenograft in athymic nude mice. It counts as in vivo. Background: Xenograft models place foreign cells or tissue in a host animal.
Procedure: In vivo experiments were performed at least 2 times. The number of mice required for those experiments was determined by power analysis. Mouse tumors were measured 2-3 times/week and mice were sacrificed when the tumor was 10% by weight. […] The end point of the mouse studies was median survival. Kaplan-Meier curves were generated and Mantle-Cox test was performed to determine significance of median survival between treatment groups. The in vitro results presented are representative of at least 5 repeated experiments. Statistical analyses of in vitro and in vivo percent change from baseline experiments were done using the Student's t-test.
as §1

The substance rituximab displayed a median survival in test [1] of 12 days. The “blocking of CD20 binding of fluorescent anti-CD20” value in test [2] is recorded as “specifically blocked”. In test [3], the “pH and temperature dependence of binding affinity to ABX” value is recorded as “decreased with higher pH”.

For the substance bevacizumab, the “therapeutic effect on tumor volume” value in test [4] (12 mg/kg dose) is “not therapeutic”. In test [4] (BEV 12 mg/kg, ABX 30 mg/kg, BEV followed by ABX, or AB160), the median survival worked out at 14 days. The “pH and temperature dependence of binding affinity to ABX” value in test [3] is “highest binding affinity observed when the particles are formed at pH 5 and 58 °C”.
